Test results as given in US20060099648A1, “Compositions and methods for epitope mapping” (priority 2000, published 2006).

What follows are molecules tested against Human IgG (Calbiochem; San Diego Calif.) (human) (assay: IgG displaced from peptide pin; competitor MSP1-19). Conditions: not given.

| Molecule | ΔF (%) |
| --- | --- |
| DGIFC [Peptide# 88] | 7 |
| LFDGI [Peptide# 86] | 11 |
| FDGIF [Peptide# 87] | 9 |
| PLFDG [Peptide# 85] | 16 |
| GIFCS [Peptide# 89] | 11 |
| KKQCP [Peptide# 9] | < 5 |

Each molecule was assayed on MSP1-19 (assay: Epitope mapping: displacement of human IgG from peptide pins on exposure to MSP1-19). Conditions: change in human IgG binding to peptide pin after 1 h exposure to 50 mg/mL MSP1-19 at room temperature; normalised to no-peptide pins and control peptide GLAQG.
Design: species or system Plasmodium falciparum
Description: A natural human IgG antibody library was tested for its ability to bind to peptides associated with the 19 kDa C-terminal region of merozoite surface protein 1 (MSP1-19) from Plasmodium falciparum (Kaslow et al., Mol. Biochem. Parasitology 63:283-289 (1994)). The 89 amino acid sequence from MSP1-19 was used for the epitope mapping experiment (see Table 1).
Briefly, a library of pentamer peptides was synthesized on polypropylene pins following the procedures described by Geysen et al., Proc. Natl. Acad. Sci. USA 81:3998-4002 (1984). These peptides represented all five-amino-acid stretches of MSP1-19 offset by one residue (Table 1). Peptide pins were precoated in phosphate buffered saline (PBS), pH 7.2, containing 2% BSA and 0.1% TWEEN 20 for one hour at room temperature. Five successive washes of the pins were carried out for five minutes each with agitation in PBS. Human IgG (Calbiochem; San Diego Calif.) was complexed to the peptides by incubating 0.1 mg/mL IgG in PBS at 4° C. for 30 hours. Unbound antibody was removed by washing as described above in 10 mM TRIS, pH 7.4 buffer containing 150 mM NaCl (TBS) using new microtiter plates for transferring the pins for each of the five washings. Anti-human IgG (goat) alkaline phosphatase conjugate was diluted to 0.1 mg specific antibody/mL in TBS and incubated with the peptide/antibody complex for one hour at room temperature before washing five times with TBS, as described above. The pins were then incubated in assay solution containing 10 mM TRIS, pH 8.0, 150 mM NaCl, 0.5 mM MgCl2, and 0.1 mM 4-methylumbelliferyl-phosphate for 30 minutes at room temperature in the dark. Following incubation, the fluorescence intensity of the assay solution was measured in a Spectromax Gemini plate reader (Molecular Devices; Sunnyvale Calif.)(ex 358 nm/em 450 nm).
The peptide/antibody complexes on the pins were washed five times in TBS, as described above, and incubated with 50 mg/mL MSP1-19 diluted in TBS for one hour at room temperature. The pins were washed in TBS as before and incubated in assay mixture for 30 minutes in the dark prior to measurement of the fluorescent intensity. Change in binding was determined using the equation: ΔF=(FMSP−Fb,MSP)/(F100,MSP−Fb,MSP)−(F0−Fb,0)/(F100,0−Fb,0) where FMSP and F0 are the fluorescence intensities of peptide containing pins after and before exposure to MSP1-19, respectively. Fb,MSP and Fb,0 are the fluorescence intensities of pins with no peptide after and before exposure to MSP1-19, respectively. F100,MSP and F100,0 are the fluorescence intensities of pins containing a control peptide, GLAQG (SEQ ID NO:90), after and prior to exposure to MSP1-19.

| Molecule | ΔF (%) |
| --- | --- |
| ADAKC [Peptide 58] | <5 |
| AKCTE [Peptide 60] | 5 |
| CDADA [Peptide 56] | <5 |
| CECTK [Peptide 76] | <5 |
| CFRHL [Peptide 18] | <5 |
| CKCLL [Peptide 28] | <5 |
| CLLNY [Peptide 30] | <5 |
| CNENN [Peptide 49] | 16 |
| CPQNS [Peptide 12] | <5 |
| CTEED [Peptide 62] | <5 |
| CTKPD [Peptide 78] | 10 |
| CVENP [Peptide 41] | <5 |
| CVKKQ [Peptide 7] | <5 |
| DADAK [Peptide 57] | <5 |
| DAKCT [Peptide 59] | <5 |
| DEREE [Peptide 23] | <5 |
| DGIFC [Peptide 88] | 7 |
| DKCVE [Peptide 39] | <5 |
| DSGSN [Peptide 66] | 9 |
| DSYPL [Peptide 82] | 9 |
| ECKCL [Peptide 27] | <5 |
| ECTKP [Peptide 77] | 13 |
| EDSGS [Peptide 65] | 7 |

| Molecule | ΔF (%) |
| --- | --- |
| EECKC [Peptide 26] | <5 |
| EEDSG [Peptide 64] | 7 |
| EGDKC [Peptide 37] | <5 |
| ENNGG [Peptide 51] | <5 |
| ENPNP [Peptide 43] | <5 |
| EREEC [Peptide 24] | <5 |
| FDGIF [Peptide 87] | 9 |
| FRHLD [Peptide 19] | <5 |
| GCDAD [Peptide 55] | 7 |
| GCFRH [Peptide 17] | <5 |
| GDKCV [Peptide 38] | <5 |
| GGCDA [Peptide 54] | <5 |
| GIFCS [Peptide 89] | 11 |
| GKKIT [Peptide 71] | 6 |
| GSNGK [Peptide 68] | <5 |
| HLDER [Peptide 21] | <5 |
| HQCVK [Peptide 5] | <5 |
| ISQHQ [Peptide 2] | <5 |
| ITCEC [Peptide 74] | 5 |
| KCLLN [Peptide 29] | <5 |
| KCTEE [Peptide 61] | 6 |
| KCVEN [Peptide 40] | <5 |
| KITCE [Peptide 73] | 7 |

| Molecule | ΔF (%) |
| --- | --- |
| KKITC [Peptide 72] | 9 |
| KKQCP [Peptide 9] | <5 |
| KPDSY [Peptide 80] | 11 |
| KQCPQ [Peptide 10] | <5 |
| KQEGD [Peptide 35] | <5 |
| LDERE [Peptide 22] | <5 |
| LFDGI [Peptide 86] | 11 |
| LLNYK [Peptide 31] | <5 |
| LNYKQ [Peptide 32] | <5 |
| NENNG [Peptide 50] | 5 |
| NGGCD [Peptide 53] | 10 |
| NGKKI [Peptide 70] | 12 |
| NISQH [Peptide 1] | <5 |
| NNGGC [Peptide 52] | 6 |
| NPNPT [Peptide 44] | <5 |
| NPTCN [Peptide 46] | <5 |
| NSGCF [Peptide 15] | <5 |
| NYKQE [Peptide 33] | <5 |
| PDSYP [Peptide 81] | 9 |
| PLFDG [Peptide 85] | 16 |
| PNPTC [Peptide 45] | <5 |
| PQNSG [Peptide 13] | <5 |
| PTCNE [Peptide 47] | <5 |

| Molecule | ΔF (%) |
| --- | --- |
| QCPQN [Peptide 11] | <5 |
| QCVKK [Peptide 6] | <5 |
| QEGDK [Peptide 36] | <5 |
| QHQCV [Peptide 4] | <5 |
| QNSGC [Peptide 14] | <5 |
| REECK [Peptide 25] | <5 |
| RHLDE [Peptide 20] | <5 |
| SGCFR [Peptide 16] | <5 |
| SGSNG [Peptide 67] | <5 |
| SNGKK [Peptide 69] | <5 |
| SQHQC [Peptide 3] | <5 |
| SYPLF [Peptide 83] | 13 |
| TCECT [Peptide 75] | 12 |
| TCNEN [Peptide 48] | <5 |
| TEEDS [Peptide 63] | <5 |
| TKPDS [Peptide 79] | 11 |
| VENPN [Peptide 42] | <5 |
| VKKQC [Peptide 8] | <5 |
| YKQEG [Peptide 34] | <5 |
| YPLFD [Peptide 84] | 12 |
